# Experimental data taken from publication PMC4043716 (Drug Design, Development and Therapy, 2014).
# Like-named read-outs stand apart in the source and are kept apart here.
# How the values were obtained:
# [1] = tested on: NIH3T3 cells; experiment: MTT cell proliferation assay; format: cell-based, mouse; settings: 1 μM staurosporine alone, 24 hours
# [2] = tested on: caspase-3/7; experiment: Apo-ONE Homogeneous Caspase-3/7 Assay in NIH3T3 cells; format: cell-based, mouse; settings: 1 μM staurosporine alone, 6 hours
# [3] = tested on: NIH3T3 cells; format: cell-based, mouse; settings: 1 μM staurosporine alone, 24 hours
# [4] = tested on: NIH3T3 cells; experiment: JC-10 mitochondrial membrane potential assay; format: cell-based, mouse; settings: 1 μM staurosporine alone, 6 hours
# [5] = format: cell-based; settings: rat, PC12 cells
# [6] = format: cell-based; settings: human, U87MG cells
# [7] = format: cell-based; settings: human, SH-SY5Y cells
smiles,measurement,setting,value
CN[C@@H]1C[C@H]2O[C@@](C)([C@@H]1OC)n1c3ccccc3c3c4c(c5c6ccccc6n2c5c31)C(=O)NC4 [staurosporine],Cell viability by MTT,[1],reduced the cell viability dramatically
same,Caspase activation (caspase-3/7 activity),[2],induced significant caspase activation
same,Cell death,[3],over 90%
same,Mitochondrial membrane potential,[4],significantly lost mitochondrial membrane potential
same,"viability at 24 h, 1 μM",[5],4%
same,"viability at 24 h, 1 μM",[6],8%
same,"viability at 24 h, 1 μM",[7],6%
